Literature values, collected in Sander's compilation of Henry's law constants (doi:10.1016/s0016-7037(99)00330-0).

Assay: Henry solubility constant Hcp at 298.15 K (mol/(m3 Pa))
Settings: reference: Plyasunov and Shock (2000); cited value

| SMILES | Henry solubility constant Hcp |
| --- | --- |
| Cc1ccc(C)cc1 [1,4-dimethylbenzene] | 0.0014 |
| CC(C)Cc1ccccc1 [(2-methylpropyl)-benzene] | 0.00029 |
| C=CC [propene] | 5.6e-05 |
| CCC#CC(C)(C)C [2,2-dimethyl-3-hexyne] | 0.00014 |
| C#CCCCCCC [1-octyne] | 0.00012 |
| CC(C)CO [2-methyl-1-propanol] | 0.85 |
| CCCCCc1ccccc1 [pentylbenzene] | 0.00051 |
| CC(C)O [2-propanol] | 1.2 |
| C=C(C)C1CC=C(C)CC1 (stereo unspecified) [1-methyl-4-(1-methylethenyl)-cyclohexene] | 0.00047 |
| C=CCC(C)C [4-methyl-1-pentene] | 1.5e-05 |
| CC1CCCC1 [methylcyclopentane] | 2.8e-05 |
| C[C@@H]1CCCC[C@@H]1C [cis-1,2-dimethylcyclohexane] | 2.8e-05 |
| CCCCC [pentane] | 8.7e-06 |
| CC(C)(C)c1ccccc1 [(1,1-dimethylethyl)-benzene] | 0.00079 |
| Cc1ccccc1C [1,2-dimethylbenzene] | 0.002 |
| C1=CCC=CC1 [1,4-cyclohexadiene] | 0.001 |
| CC(C)(C)C#CC(C)(C)C [2,2,5,5-tetramethyl-3-hexyne] | 3.4e-05 |
| CCCCCCCO [1-heptanol] | 0.54 |
| CC(C)CC(C)(C)C [2,2,4-trimethylpentane] | 3e-06 |

| SMILES | Henry solubility constant Hcp |
| --- | --- |
| C=C1CCC2(C(C)C)CC12 (stereo unspecified) [4-methylene-1-(1-methylethyl)-bicyclo[3.1.0]hexane] | 0.00015 |
| CC#CCCCC [2-heptyne] | 0.00049 |
| Cc1cccc(C(C)C)c1 [1-methyl-3-(1-methylethyl)-benzene] | 0.0014 |
| C1=CCCCCC1 [cycloheptene] | 0.0002 |
| CCC(C)C [2-methylbutane] | 7.7e-06 |
| CCC(O)(CC)CC [3-ethyl-3-pentanol] | 0.3 |
| C=C(C)C [2-methylpropene] | 5.7e-05 |
| CCCC(O)CCC [4-heptanol] | 0.34 |
| CC(C)c1ccccc1 [(2-propyl)-benzene] | 0.00084 |
| CC(C)CCO [3-methyl-1-butanol] | 0.7 |
| C#C [ethyne] | 0.00041 |
| C[C@H]1CC[C@H](C)CC1 [trans-1,4-dimethylcyclohexane] | 1.1e-05 |
| C=CC=C [1,3-butadiene] | 0.00014 |
| CC1CCCCC1 [methylcyclohexane] | 2.4e-05 |
| CCCCCCCCC [nonane] | 2.1e-06 |
| C#CC [propyne] | 0.00075 |
| CCCCCCCCCCCC [dodecane] | 1.2e-06 |
| CC(C)CCC(C)(C)C [2,2,5-trimethylhexane] | 2.8e-06 |
| C1CCCCC1 [cyclohexane] | 5.3e-05 |

| SMILES | Henry solubility constant Hcp |
| --- | --- |
| CCC(C)O (stereo unspecified) [2-butanol] | 0.99 |
| Cc1cccc(C)c1C [1,2,3-trimethylbenzene] | 0.0026 |
| CCc1ccccc1 [ethylbenzene] | 0.0013 |
| C#CCCCCC [1-heptyne] | 0.00018 |
| CC1=CCC(C(C)C)C=C1 (stereo not drawn) [α-phellandrene] | 0.00018 |
| CCCCC(C)C [2-methylhexane] | 2.9e-06 |
| C1CCCCCCC1 [cyclooctane] | 9.3e-05 |
| CC1=CCCCC1 [1-methylcyclohexene] | 0.00014 |
| CCC(C)CO (stereo unspecified) [2-methyl-1-butanol] | 0.71 |
| CCCc1ccccc1 [propylbenzene] | 0.00091 |
| CCC(CC)CO [2-ethyl-1-butanol] | 0.54 |
| CCC(C)C(C)C (stereo unspecified) [2,3-dimethylpentane] | 5.7e-06 |
| CCCCC(O)CC (stereo unspecified) [3-heptanol] | 0.31 |
| Cc1ccccc1C(C)C [1-methyl-2-(1-methylethyl)-benzene] | 0.0016 |
| CC1(C)C2CC3C(C2)C31C [tricyclene] | 4.9e-05 |
| CCCCCC [hexane] | 6.9e-06 |
| CCCO [1-propanol] | 1.5 |
| CCCCC(C)CC (stereo unspecified) [3-methylheptane] | 2.7e-06 |
